Source: patent US20250084074A1, “SUBSTITUTED HETEROCYCLES AS HSET INHIBITORS” (MERCK PATENT GMBH, priority 2022, published 2025)
Where a name gives a salt, the structure may show the parent alone.

Target: HSET full length protein (Homo sapiens (Human), UniProt Q9BW19)
Test: HSET ADP-Glo Assay S - 3 μM ATP
Format: biochemical
Conditions: 5 nM HSET, 70 μg/mL microtubule, 80 min at rt, read-out: COMBINED HSET ADP GLO IC50
In short: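 Full-length human HSET (5 nM) with paclitaxel-stabilised bovine brain microtubules (70 μg/mL) in HEPES pH 6.8 buffer was preincubated 10 min with compound. ATP at 3 μM started the reaction, which ran 80 min at rt. ADP formed was measured by ADP-Glo luminescence.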

HSET full length protein, sequence (Q9BW19 whole entry): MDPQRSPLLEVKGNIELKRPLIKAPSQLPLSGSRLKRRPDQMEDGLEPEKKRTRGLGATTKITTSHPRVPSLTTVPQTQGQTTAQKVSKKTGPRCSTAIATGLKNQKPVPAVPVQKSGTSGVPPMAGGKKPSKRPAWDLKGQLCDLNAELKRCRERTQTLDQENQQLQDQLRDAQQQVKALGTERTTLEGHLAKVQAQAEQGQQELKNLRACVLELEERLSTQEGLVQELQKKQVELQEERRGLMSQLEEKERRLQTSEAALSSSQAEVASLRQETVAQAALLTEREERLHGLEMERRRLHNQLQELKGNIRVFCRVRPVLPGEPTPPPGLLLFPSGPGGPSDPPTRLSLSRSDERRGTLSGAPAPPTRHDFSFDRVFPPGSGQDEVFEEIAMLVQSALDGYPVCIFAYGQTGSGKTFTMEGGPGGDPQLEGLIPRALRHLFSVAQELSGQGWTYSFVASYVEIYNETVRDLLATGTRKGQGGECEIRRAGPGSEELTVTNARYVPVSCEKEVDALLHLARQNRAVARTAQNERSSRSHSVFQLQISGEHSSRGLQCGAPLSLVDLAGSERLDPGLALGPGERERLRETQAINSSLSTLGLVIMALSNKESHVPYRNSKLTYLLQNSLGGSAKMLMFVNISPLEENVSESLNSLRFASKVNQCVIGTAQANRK

| SMILES | IC50 [nM] |
| --- | --- |
| Cc1cc(C(=O)N2CC[C@H](Nc3nccc4ccc(-c5noc(C)n5)cc34)C2)no1 [Example 251, (5-Methylisoxazol-3-yl)-[(3S)-3-[[7-(5-methyl-1,2,4-oxadiazol-3-yl)-1-isoquinolyl]amino]pyrrolidin-1-yl]methanone] | 5620 |
| CCCC(C)c1sc(NC(=O)CCNC(=O)c2cccc(-c3noc(C)n3)c2)nc1C (stereo not drawn) [Example 129, 3-(5-methyl-1,2,4-oxadiazol-3-yl)-N-(3-((4-methyl-5-(pentan-2-yl)thiazol-2-yl)amino)-3-oxopropyl)benzamide] | 1130 |
| Cc1nc(-c2ccc3ccnc(NCCC(=O)Nc4cnn(C(=O)OC(C)(C)C)c4)c3c2)no1 [Example 272, tert-Butyl 4-(3-{[7-(5-methyl-1,2,4-oxadiazol-3-yl)isoquinolin-1-yl]amino}propanamido)-1 H-pyrazole-1-carboxylate] | 160 |
| CCCOC(=O)n1cc(NC(=O)CCNC(=O)c2cccc(-c3noc(C)n3)c2)cn1 [Example 275, Propyl 4-(3-{[3-(5-methyl-1,2,4-oxadiazol-3-yl)phenyl]formamido}-propanamido)-1 H-pyrazole-1-carboxylate] | 11500 |
| COCCOC(=O)c1sc(NC(=O)CCNC(=O)c2cccc(-c3noc(C)n3)c2)nc1C [Example 67, 2-Methoxyethyl 4-methyl-2-(3-(3-(5-methyl-1,2,4-oxadiazol-3-yl)benzamido)propanamido)thiazole-5-carboxylate] | 419 |
| CCCOC(=O)c1cc(NC(=O)CCNC(=O)c2cc(C)cc(-c3noc(C)n3)c2)nn1C [Example 27, Propyl 1-methyl-3-(3-(3-methyl-5-(5-methyl-1,2,4-oxadiazol-3-yl)benzamido)propanamido)-1 H-pyrazole-5-carboxylate] | 116 |
| Cc1nc(-c2ccc3ccnc(NC[C@H](O)C(=O)Nc4nc(C)c(C(C)(C)C)s4)c3c2)no1 [Example 187, (S)-N-(5-(tert-butyl)-4-methylthiazol-2-yl)-2-hydroxy-3-((7-(5-methyl-1,2,4-oxadiazol-3-yl)isoquinolin-1-yl)amino)propenamide] | 52 |
| CCCOC(=O)n1cnc(NC(=O)CCNc2nccc3ccc(-c4noc(C)n4)cc23)c1 [Example 260, Propyl 4-(3-{[7-(5-methyl-1,2,4-oxadiazol-3-yl)isoquinolin-1-yl]amino}propanamido)-1 H-imidazole-1-carboxylate] | 140 |
| Cc1nc(-c2ccc3ccnc(NCCC(=O)Nc4cc(C5CC5)on4)c3c2)no1 [Example 78] | 1500 |
| CCCOC(=O)c1sc(NC(=O)[C@@H](N)CNc2nccc3ccc(-c4noc(C)n4)cc23)nc1C [Example 174, Propyl (S)-2-(2-amino-3-((7-(5-methyl-1,2,4-oxadiazol-3-yl)isoquinolin-1-yl)amino)propanamido)-4-methylthiazole-5-carboxylate] | 8 |
| CCCOC(=O)c1sc(NC(=O)[C@@H]2C[C@H](NC(=O)c3cccc(-c4noc(C)n4)c3)CN2C)nc1C [Example 234, Propyl 4-methyl-2-((2S,4S)-1-methyl-4-(3-(5-methyl-1,2,4-oxadiazol-3-yl)benzamido)pyrrolidine-2-carboxamido)thiazole-5-carboxylate] | 2100 |
| COC1(c2cnc(NC(=O)CCNc3nccc4ccc(-c5noc(C)n5)cc34)s2)CCCCC1 [Example 87] | 9380 |
| COCCCCOC(=O)c1sc(NC(=O)CCNC(=O)c2cccc(-c3noc(C)n3)c2)nc1C [Example 69, 4-Methoxybutyl 4-methyl-2-(3-(3-(5-methyl-1,2,4-oxadiazol-3-yl)benzamido)propanamido)thiazole-5-carboxylate] | 50 |
| Cc1nc(NC(=O)[C@H](O)CNC(=O)c2cccc(-c3cnn(C)c3)c2)cn1C(=O)OC(C)C [Example 270] | 5100 |
| CCOC(=O)c1sc(NC(=O)CCNC(=O)c2cc(C(=O)OC)ccc2Cl)nc1C [Example 12, Ethyl 2-[3-[(2-chloro-5-methoxycarbonyl-benzoyl)amino]propanoylamino]-4-methyl-thiazole-5-carboxylate] | 1100 |
| CCOC(=O)c1sc(NC(=O)CCNC(=O)c2cc(Br)cc(C(=O)OC)c2)nc1C [Example 18, Ethyl 2-[3-[(3-bromo-5-methoxycarbonyl-benzoyl)amino]propanoylamino]-4-methyl-thiazole-5-carboxylate] | 14 |
| CCCOC(=O)n1cc(NC(=O)CCNc2nccc3ccc(-c4noc(C)n4)cc23)cn1 [Example 273, Propyl 4-(3-{[7-(5-methyl-1,2,4-oxadiazol-3-yl)isoquinolin-1-yl]amino}propanamido)-1 H-pyrazole-1-carboxylate] | 80 |
| Cc1nc(NC(=O)C[C@@H](CC#N)NC(=O)c2cccc(-c3cnn(C)c3)c2)sc1C(=O)OC(C)(C)C [Example 202] | 8850 |

| SMILES | IC50 [nM] |
| --- | --- |
| CNCCC[C@@H](CC(=O)Nc1nc(C)c(C(=O)OC(C)C)s1)Nc1nccc2ccc(-c3noc(C)n3)cc12 [Example 167, Isopropyl (S)-4-methyl-2-(3-((7-(5-methyl-1,2,4-oxadiazol-3-yl)isoquinolin-1-yl)amino)-6-(methylamino)hexanamido)thiazole-5-carboxylate] | 10 |
| Cc1nc(-c2ccc3ccnc(NC[C@@H](O)C(=O)Nc4nc(C)c(C5(C(F)(F)F)CC5)s4)c3c2)no1 [Example 192, (R)-2-hydroxy-3-((7-(5-methyl-1,2,4-oxadiazol-3-yl)isoquinolin-1-yl)amino)-N-(4-methyl-5-(1-(trifluoromethyl)cyclopropyl)thiazol-2-yl)propanamide] | 461 |
| Cc1nc(-c2cccc(C(=O)NC3CN(C(=O)N(C)c4nc(C)c(C(=O)OC(C)(C)C)s4)C3)c2)no1 [Example 229, tert-Butyl 4-methyl-2-[methyl-[3-[[3-(5-methyl-1,2,4-oxadiazol-3-yl)benzoyl]amino]azetidine-1-carbonyl]amino]thiazole-5-carboxylate] | 52 |
| CCOC(=O)c1sc(NC(=O)CC(NC(=O)c2cccc(-c3noc(C)n3)c2)C2CCNCC2)nc1C (stereo not drawn) [Example 146, 4-(3-((5-(ethoxycarbonyl)-4-methylthiazol-2-yl)amino)-1-(3-(5-methyl-1,2,4-oxadiazol-3-yl)benzamido)-3-oxopropyl)piperidin-1-ium formate] | 260 |
| Cc1nc(NC(=O)C[C@@H](CC#N)NC(=O)c2cccc(-c3cnn(C)c3)n2)sc1C(=O)OC(C)C [Example 214] | 2400 |
| Cc1nc(-c2ccc3ccnc(N[C@H]4CCN(C(=O)c5cc(C6CC6)n(C)n5)C4)c3c2)no1 [Example 247, (S)-(5-cyclopropyl-1-methyl-1 H-pyrazol-3-yl)(3-((7-(5-methyl-1,2,4-oxadiazol-3-yl)isoquinolin-1-yl)amino)pyrrolidin-1-yl)methanone] | 13600 |
| Cc1nc(NC(=O)C[C@H](CC#N)NC(=O)c2cccc(-c3cnn(C)c3)c2)sc1C(=O)OC(C)(C)C [Example 201] | 410 |
| CCCOC(=O)c1sc(NC(=O)C[C@H](CCN(C)C)NC(=O)c2cccc(-c3noc(C)n3)c2)nc1C [Example 162, Propyl (S)-2-(5-(dimethylamino)-3-(3-(5-methyl-1,2,4-oxadiazol-3-yl)benzamido)pentanamido)-4-methylthiazole-5-carboxylate] | 558 |
| Cc1nc(-c2ccc3ccnc(NCCC(=O)Nc4ncc(C#N)s4)c3c2)no1 [Example 55] | 1130 |
| CCCOC(=O)c1sc(NC(=O)CCNc2nccc3ccc(-c4noc(C)n4)cc23)nc1C [Example 54, Propyl 4-methyl-2-(3-((7-(5-methyl-1,2,4-oxadiazol-3-yl)isoquinolin-1-yl)amino)propanamido)thiazole-5-carboxylate] | 3 |
| Cc1nc(-c2cccc(C(=O)NCCC(=O)Nc3nc(C)c(C(=O)OC(C)C)s3)c2)no1 [Example 66, Isopropyl 4-methyl-2-(3-(3-(5-methyl-1,2,4-oxadiazol-3-yl)benzamido)propanamido)thiazole-5-carboxylate] | 40 |
| CCCOC(=O)c1sc(NC(=O)C[C@H](CCCN)NC(=O)c2cccc(-c3noc(C)n3)c2)nc1C [Example 151, Popyl-(S)-2-(6-amino-3-(3-(5-methyl-1,2,4-oxadiazol-3-yl)benzamido)hexanamido)-4-methylthiazole-5-carboxylate] | 13 |
| CCCOC(=O)c1sc(NC(=O)C[C@H](CCCN)Nc2nccc3ccc(-c4noc(C)n4)cc23)nc1C [Example 163, Propyl (S)-2-(6-amino-3-((7-(5-methyl-1,2,4-oxadiazol-3-yl)isoquinolin-1-yl)amino)hexanamido)-4-methylthiazole-5-carboxylate] | 13 |
| Cc1nc(-c2cccc(C(=O)N[C@H](CC#N)CC(=O)N(C)c3nc(C)c(C(=O)OC(C)C)s3)c2)no1 [Example 200, Propan-2-yl 2-[(3R)-4-cyano-N-methyl-3-{[3-(5-methyl-1,2,4-oxadiazol-3-yl)phenyl]-formamido}butanamido]-4-methyl-1,3-thiazole-5-carboxylate] | 295 |
| CCCOC(=O)c1sc(C(=O)N2CC[C@@H](Nc3nccc4ccc(-c5noc(C)n5)cc34)[C@@H]2C)nc1C [Example 255, Propyl 4-methyl-2-((2S,3R)-2-methyl-3-((7-(5-methyl-1,2,4-oxadiazol-3-yl)isoquinolin-1-yl)amino)pyrrolidine-1-carbonyl)thiazole-5-carboxylate] | 27 |
| Cc1nc(NC(=O)[C@@H](O)CNC(=O)c2cccc(-c3cnn(C)c3)c2)cn1C(=O)OC(C)C [Example 269] | 910 |
| CCCOC(=O)c1sc(NC(=O)CCNC(=O)c2cc(C#N)cc(C(F)(F)F)c2)nc1C [Example 28, Propyl 2-(3-(3-cyano-5-(trifluoromethyl)benzamido)propanamido)-4-methylthiazole-5-carboxylate] | 2240 |
| CCCOC(=O)c1sc(C(=O)N[C@H]2C[C@@H](Nc3nccc4ccc(-c5noc(C)n5)cc34)C2)nc1C [Example 220, Propyl 4-methyl-2-(((1s,3s)-3-((7-(5-methyl-1,2,4-oxadiazol-3-yl)isoquinolin-1-yl)amino)cyclobutyl)carbamoyl)thiazole-5-carboxylate] | 122 |
